{"source": "patent US20230346670A1", "about": "“Prebiotic Oral Care Compositions and Methods” (Colgate-Palmolive Company, priority 2020, published 2023)", "type_in_all_cases": "cell-based", "key": {"[1]": {"tested_on": "P. intermedia virulence genes", "experiment": "Virulence gene expression in multi-species biofilm (SYBR RT-qPCR)", "conditions": "relative to control = 1", "protocol": "(§1) Biofilms are grown vertically on Calcium Deficient Hydroxyapatite (CAD-HA) disks (Hitemco Medical, Old Bethpage, USA) using the Amsterdam Active Adhesion model. Biofilms are allowed to establish during 24 h (37° C., 170 rpm) under microaerophilic conditions (6% O2, 7% CO2, 7% H2, 80% N2). After this 24 h, disks are rinsed 3 times a day for 3 minutes (RT, 250 rpm), for 3 consecutive days, by transferring the lid containing the disks to a new 24-well plate containing 2 mL/well of the appropriate substrate solution. As a negative control, PBS (pH 5.7) without substrate supplementation is used.\nThe virulence of the substrate-treated multi-species biofilms are evaluated by analyzing the relative expression of 33 genes that are recognized as being related to some form of virulence and from 4 periodontal pathogens.\nExpression of bacterial virulence genes is analyzed through SYBR RT-qPCR and normalized for bacterial housekeeping gene expression. […] These effects are illustrated in Tables 6a and 6b:\nNote, for Table 6d, fold changes in virulence gene expression are determined relatively to the control condition through the 2^^-ΔΔCt method and are shown as the geometric mean (C.I.) (n = 3) of the 2^^-ΔΔCt values. All substrates are dissolved in PBS at a concentration of 1 M (upper part) or 1%(w/v) (lower part). Values between 0 and 1 represent relative downregulation, values >1 represent relative upregulation. […] NADG: N-acetyl-D-glucosamine; C.I.: 95% confidence interval."}, "[2]": {"tested_on": "multi-species biofilm (beneficial/commensal species, periodontal pathogens, cariogenic pathogens)", "experiment": "Multi-species biofilm composition, relative proportions and group changes", "protocol": "Biofilms are grown vertically on Calcium Deficient Hydroxyapatite (CAD-HA) disks (Hitemco Medical, Old Bethpage, USA) using the Amsterdam Active Adhesion model. […] After this 24 h, disks are rinsed 3 times a day for 3 minutes (RT, 250 rpm), for 3 consecutive days, by transferring the lid containing the disks to a new 24-well plate containing 2 mL/well of the appropriate substrate solution. As a negative control, PBS (pH 5.7) without substrate supplementation is used. N-acetyl-D-glucosamine (NADG), α-D-lactose, D-(+)-trehalose and D-(+)-raffinose are selected to determine their effects on multi-species biofilm composition. Repeated rinsing of the biofilms with the substrates at a concentration of 1 M results in a significant decrease in absolute numbers in at least four of the pathogenic bacterial species tested in the assay, in comparison to the control, the results of which are described in Table 1 below. Note, NADG decreased absolute numbers of S. sobrinus. Absolute abundances of bacterial species are shown as mean ± SD (n = 3) logarithmic values of the genome equivalents per millilitre (log(Geq/mL))."}, "P. intermedia": {"tested_on": "P. intermedia", "experiment": "Multi-species biofilm composition, absolute abundance (Geq/mL)", "conditions": "repeated rinsing", "protocol": "as §1\n(§2) N-acetyl-D-glucosamine (NADG), α-D-lactose, D-(+)-trehalose and D-(+)-raffinose are selected to determine their effects on multi-species biofilm composition. Repeated rinsing of the biofilms with the substrates at a concentration of 1 M results in a significant decrease in absolute numbers in at least four of the pathogenic bacterial species tested in the assay, in comparison to the control, the results of which are described in Table 1 below. Note, NADG decreased absolute numbers of S. sobrinus. Absolute abundances of bacterial species are shown as mean ± SD (n = 3) logarithmic values of the genome equivalents per millilitre (log(Geq/mL))."}, "S. mitis": {"tested_on": "S. mitis", "experiment": "Multi-species biofilm composition, absolute abundance (Geq/mL)", "conditions": "repeated rinsing", "protocol": "as §1, §2"}, "S. sobrinus": {"tested_on": "S. sobrinus", "experiment": "Multi-species biofilm composition, absolute abundance (Geq/mL)", "conditions": "repeated rinsing", "protocol": "as §1, §2"}, "S. oralis": {"tested_on": "S. oralis", "experiment": "Multi-species biofilm composition, absolute abundance (Geq/mL)", "conditions": "repeated rinsing", "protocol": "as §1, §2"}, "S. gordonii": {"tested_on": "S. gordonii", "experiment": "Multi-species biofilm composition, absolute abundance (Geq/mL)", "conditions": "repeated rinsing", "protocol": "as §1, §2"}, "A. actinomycetemcomitans": {"tested_on": "A. actinomycetemcomitans", "experiment": "Multi-species biofilm composition, absolute abundance (Geq/mL)", "conditions": "repeated rinsing", "protocol": "as §1, §2"}, "P. gingivalis": {"tested_on": "P. gingivalis", "experiment": "Multi-species biofilm composition, absolute abundance (Geq/mL)", "conditions": "repeated rinsing", "protocol": "as §1, §2"}, "A. naeslundii": {"tested_on": "A. naeslundii", "experiment": "Multi-species biofilm composition, absolute abundance (Geq/mL)", "conditions": "repeated rinsing", "protocol": "as §1, §2"}, "[3]": {"conditions": "lower part of Table 6d, head prints 1 M (lower part 1%(w/v))"}, "[4]": {"conditions": "upper part of Table 6d, substrate 1 M, n = 3"}, "[5]": {"conditions": "Table 3, separate experiments, concentration not given"}}, "note": "Several values for one entry are separate records, joined by “and”; a condition that tells them apart may be missing. Identical values can stand only once. Marks after values point to notes of the source that are not given here.", "data": [{"smiles": "CC(=O)N[C@H]1C(O)O[C@H](CO)[C@@H](O)[C@@H]1O", "note": "(stereo partly drawn) [NADG, N-acetyl-D-glucosamine]", "values": [{"measurement": "fold change in DnaJ expression, geometric mean (95% C.I.)", "setting": "[1]; [3]", "result": "0.70 (0.50-0.99) fold"}, {"measurement": "fold change in DnaK expression, geometric mean (95% C.I.)", "setting": "[1]; [3]", "result": "0.77 (0.34-1.77) fold"}, {"measurement": "fold change in ECF expression, geometric mean (95% C.I.)", "setting": "[1]; [3]", "result": "0.48 (0.11-2.02) fold"}, {"measurement": "fold change in GroES expression, geometric mean (95% C.I.)", "setting": "[1]; [3]", "result": "0.75 (0.49-1.14) fold"}, {"measurement": "fold change in HtpG expression, geometric mean (95% C.I.)", "setting": "[1]; [3]", "result": "0.46 (0.22-0.94)* fold"}, {"measurement": "fold change in KpsD expression, geometric mean (95% C.I.)", "setting": "[1]; [3]", "result": "0.78 (0.37-1.62) fold"}, {"measurement": "fold change in adpc expression, geometric mean (95% C.I.)", "setting": "[1]; [3]", "result": "0.67 (0.64-0.69) fold"}, {"measurement": "fold change in clpB expression, geometric mean (95% C.I.)", "setting": "[1]; [3]", "result": "1.06 (0.58-1.96) fold"}, {"measurement": "fold change in inpA expression, geometric mean (95% C.I.)", "setting": "[1]; [3]", "result": "0.53 (0.24-1.17)* fold"}, {"measurement": "fold change in phg expression, geometric mean (95% C.I.)", "setting": "[1]; [3]", "result": "0.69 (0.47-1.00) fold"}, {"measurement": "fold change in DnaJ expression, geometric mean (95% C.I.)", "setting": "[1]; [4]", "result": "0.64 (0.35-1.16) fold"}, {"measurement": "fold change in DnaK expression, geometric mean (95% C.I.)", "setting": "[1]; [4]", "result": "2.34 (1.23-4.43)* fold"}, {"measurement": "fold change in ECF expression, geometric mean (95% C.I.)", "setting": "[1]; [4]", "result": "20.32 (4.81-85.88)^∗ fold"}, {"measurement": "fold change in GroES expression, geometric mean (95% C.I.)", "setting": "[1]; [4]", "result": "1.86 (1.38-2.50) fold"}, {"measurement": "fold change in HtpG expression, geometric mean (95% C.I.)", "setting": "[1]; [4]", "result": "3.40 (2.27-5.08)* fold"}, {"measurement": "fold change in KpsD expression, geometric mean (95% C.I.)", "setting": "[1]; [4]", "result": "1.72 (0.62-4.72) fold"}, {"measurement": "fold change in adpc expression, geometric mean (95% C.I.)", "setting": "[1]; [4]", "result": "2.65 (1.25-5.62)* fold"}, {"measurement": "fold change in clpB expression, geometric mean (95% C.I.)", "setting": "[1]; [4]", "result": "2.03 (0.94-4.41) fold"}, {"measurement": "fold change in inpA expression, geometric mean (95% C.I.)", "setting": "[1]; [4]", "result": "4.52 (4.14-4.94)^∗ fold"}, {"measurement": "fold change in phg expression, geometric mean (95% C.I.)", "setting": "[1]; [4]", "result": "0.57 (0.38-0.85)* fold"}, {"measurement": "relative proportion of beneficial or commensal species in biofilm", "setting": "[2]; Table 1a, substrate 1 M", "result": "97.86±1.11 % (Geq/mL) and 97.86 (+/- 1.11)^∗ % (Geq/mL)"}, {"measurement": "relative proportion of cariogenic pathogens in biofilm", "setting": "[2]; Table 1a, substrate 1 M", "result": "0.68±0.33 % (Geq/mL) and 0.68 (+/- 0.33) % (Geq/mL)"}, {"measurement": "relative proportion of periodontal pathogens in biofilm", "setting": "[2]; Table 1a, substrate 1 M", "result": "1.46±0.97 % (Geq/mL) and 1.46 (+/- 0.97)^∗ % (Geq/mL)"}, {"measurement": "relative proportion of beneficials/commensals in biofilm", "setting": "[2]; [5]", "result": "60.07 (+/- 8.25) % (Geq/mL)"}, {"measurement": "relative proportion of cariogenic pathogens in biofilm", "setting": "[2]; [5]", "result": "0.66±0.27 % (Geq/mL) and 0.66 (+/- 0.27^∗) % (Geq/mL)"}, {"measurement": "relative proportion of periodontal pathogens in biofilm", "setting": "[2]; [5]", "result": "39.27 (+/- 7.98) % (Geq/mL)"}, {"measurement": "absolute abundance of P. intermedia (Pi), mean ± SD log (Geq/mL)", "setting": "P. intermedia; substrate 1% (w/v)", "result": "8.17 ± 0.22 log (Geq/mL)"}, {"measurement": "absolute abundance of P. intermedia (Pi), mean ± SD log (Geq/mL)", "setting": "P. intermedia; substrate 1 M in PBS, n = 3", "result": "4.09 ± 0.16^∗ log (Geq/mL)"}, {"measurement": "absolute abundance of S. mitis, mean ± SD log (Geq/mL)", "setting": "S. mitis; substrate 1% (w/v)", "result": "2.65 ± 0.00 log (Geq/mL)"}, {"measurement": "absolute abundance of S. mitis, mean ± SD log (Geq/mL)", "setting": "S. mitis; substrate 1 M in PBS, n = 3", "result": "3.38 ± 1.04 log (Geq/mL)"}, {"measurement": "absolute abundance of S. sobrinus, mean ± SD log (Geq/mL)", "setting": "S. sobrinus; substrate 1% (w/v)", "result": "4.87 ± 0.22 log (Geq/mL)"}, {"measurement": "absolute abundance of S. sobrinus, mean ± SD log (Geq/mL)", "setting": "S. sobrinus; substrate 1 M in PBS, n = 3", "result": "3.46 ± 0.19^∗ log (Geq/mL)"}, {"measurement": "absolute abundance of S. oralis, mean ± SD log (Geq/mL)", "setting": "S. oralis; substrate 1% (w/v)", "result": "7.11 ± 0.14 log (Geq/mL)"}, {"measurement": "absolute abundance of S. oralis, mean ± SD log (Geq/mL)", "setting": "S. oralis; substrate 1 M in PBS, n = 3", "result": "7.96 ± 0.59 log (Geq/mL)"}, {"measurement": "absolute abundance of S. gordonii, mean ± SD log (Geq/mL)", "setting": "S. gordonii; substrate 1% (w/v)", "result": "8.33 ± 0.06 log (Geq/mL)"}, {"measurement": "absolute abundance of S. gordonii, mean ± SD log (Geq/mL)", "setting": "S. gordonii; substrate 1 M in PBS, n = 3", "result": "9.80 ± 0.22^∗ log (Geq/mL)"}, {"measurement": "absolute abundance of A. actinomycetemcomitans (Aa), mean ± SD log (Geq/mL)", "setting": "A. actinomycetemcomitans; substrate 1% (w/v)", "result": "9.11 ± 0.2 log (Geq/mL)"}, {"measurement": "absolute abundance of A. actinomycetemcomitans (Aa), mean ± SD log (Geq/mL)", "setting": "A. actinomycetemcomitans; substrate 1 M in PBS, n = 3", "result": "8.15 ± 0.21^∗ log (Geq/mL)"}, {"measurement": "absolute abundance of P. gingivalis (Pg), mean ± SD log (Geq/mL)", "setting": "P. gingivalis; substrate 1% (w/v)", "result": "7.14 ± 0.28 log (Geq/mL)"}, {"measurement": "absolute abundance of P. gingivalis (Pg), mean ± SD log (Geq/mL)", "setting": "P. gingivalis; substrate 1 M in PBS, n = 3", "result": "4.43 ± 0.14^∗ log (Geq/mL)"}, {"measurement": "absolute abundance of A. naeslundii (An), mean ± SD log (Geq/mL)", "setting": "A. naeslundii; substrate 1% (w/v)", "result": "7.71 ± 0.12 log (Geq/mL)"}, {"measurement": "absolute abundance of A. naeslundii (An), mean ± SD log (Geq/mL)", "setting": "A. naeslundii; substrate 1 M in PBS, n = 3", "result": "5.41 ± 0.31^∗ log (Geq/mL)"}]}]}
